Reference: patent US20090306020A1, “Combination therapy comprising diaryl ureas for treating diseases” (Bayer Healthcare AG, priority 2005, published 2009)
Entries after “also recorded” stand apart in the source; their conditions may differ.

Legend:
avβ3 integrin = assay: Flow cytometry of cell surface avβ3 integrin, 451Lu monolayer; assay type: cell-based, human; conditions: 4 μM wortmannin, 6 μM BAY 43-9006, alone or combined, 96 hours
Experimental: (§1) For blockade of the AKT and MAPK signaling pathways, the PI3K inhibitor wortmannin (Sigma, Steinheim, Germany) and BAY 43-9006 alone or in combination were added directly to the culture medium of the melanoma reconstructs or melanoma cells in monolayer culture at 4 μM and 6 μM, respectively. […] The culture medium was changed every two days. Melanoma reconstructs treated with culture medium or culture medium with the addition of DMSO served as controls. All experiments were done as duplicates and were repeated twice.
(§2) Surface proteins of 1×10^5-1×10^6 451Lu metastatic melanoma cells were stained as follows: Cells were pelleted for 5 min at 1,800 rpm (Heraeus variofuge 3.0R), blocked with 1×PBS/1% BSA, and after centrifugation incubated with antibodies against MeI-CAM (QBiogene-Alexis) or avβ3 integrin (BD Biosciences, Heidelberg) for 15 minutes at room temperature. Cells were washed with 1×PBS/1% BSA and subsequently incubated with anti mouse IgG-FITC (BD Biosciences, Heidelberg) or mouse IgG-isotype control-FITC alone (BD Biosciences, Heidelberg). After washing and pelleting the cells, the cell pellet was resuspended in 1×PBS and measured in a FACScalibur (BD Bioscienses, Heidelberg).
(§3) Furthermore, we examined whether inhibition of these signaling pathways affected expression of the adhesion molecules MelCAM and avβ3 known to play a key role in melanoma cell invasion. […]

MelCAM [1] = assay: Immunohistochemistry for MelCAM in metastatic melanoma reconstructs; assay type: cell-based, human; conditions: Skmel28 and WM451Lu in dermal reconstructs; 4 μM wortmannin, 6 μM BAY 43-9006, alone or combined
Experimental: (§4) The in vitro reconstruction of metastatic melanoma is based on the organotypic human skin culture technique (14). A cell-free buffered collagen solution was prepared consisting of rat tail collagen type I (BD Biosciences, Bedford, Mass., USA) at a final concentration of 1.35 mg/ml in Dulbecco's modified Eagle's medium with 10% FBS. 1.0 ml of the cell-free collagen solution was added to tissue culture inserts (Millicell PC, Millipore, Bedford, Mass., USA) placed in six-well tissue culture plates. While the acellular collagen layer was solidifying, a second collagen solution was prepared similar to the first with the addition of human fibroblasts and the melanoma cells SKMEL28 or 451 LU. Human fibroblasts and human melanoma cells from subconfluent cultures were trypsinised, washed and resuspended in the second collagen solution at a density of 15×10^5/ml and a fibroblast to melanoma cell ratio of 1:1. 3.0 ml of the fibroblast and melanoma cell-containing collagen solution were placed over the solidified acellular collagen layer. After 5 days of incubation at 37° C., the fibroblast contraction force causes the collagen gel to contract. This structure represents the melanoma reconstruct in a dermal equivalent. […] After 10 to 14 days of submerged culture, the melanoma reconstructs were harvested and evaluated. […]

β3 integrin = assay: Immunohistochemistry for β3 integrin in metastatic melanoma reconstructs; assay type: cell-based, human; conditions: Skmel28 and WM451Lu in dermal reconstructs, 4 μM wortmannin, 6 μM BAY 43-9006, alone or combined
Experimental: (§5) The in vitro reconstruction of metastatic melanoma is based on the organotypic human skin culture technique (14). A cell-free buffered collagen solution was prepared consisting of rat tail collagen type I (BD Biosciences, Bedford, Mass., USA) at a final concentration of 1.35 mg/ml in Dulbecco's modified Eagle's medium with 10% FBS. 1.0 ml of the cell-free collagen solution was added to tissue culture inserts (Millicell PC, Millipore, Bedford, Mass., USA) placed in six-well tissue culture plates. While the acellular collagen layer was solidifying, a second collagen solution was prepared similar to the first with the addition of human fibroblasts and the melanoma cells SKMEL28 or 451 LU. Human fibroblasts and human melanoma cells from subconfluent cultures were trypsinised, washed and resuspended in the second collagen solution at a density of 15×10^5/ml and a fibroblast to melanoma cell ratio of 1:1. 3.0 ml of the fibroblast and melanoma cell-containing collagen solution were placed over the solidified acellular collagen layer. After 5 days of incubation at 37° C., the fibroblast contraction force causes the collagen gel to contract. This structure represents the melanoma reconstruct in a dermal equivalent. For submerged culture conditions, 3 ml of melanoma cell culture medium supplemented with 10% FBS were added beneath the insert and 2 ml inside the insert to allow proliferation of the seeded cells. The culture medium was changed every two days. After 10 to 14 days of submerged culture, the melanoma reconstructs were harvested and evaluated.
For blockade of the AKT and MAPK signaling pathways, the PI3K inhibitor wortmannin (Sigma, Steinheim, Germany) and BAY 43-9006 alone or in combination were added directly to the culture medium of the melanoma reconstructs or melanoma cells in monolayer culture at 4 μM and 6 μM, respectively. These concentrations have been described previously to be effective for melanoma cells 6 (16). The culture medium was changed every two days. […]

[2] = system: 451Lu metastatic melanoma cells; assay: Proliferation assay (fluorimetric, 4-methylumbelliferyl heptanoate, MUH), monolayer culture; assay type: cell-based, human; conditions: 451Lu monolayer; wortmannin 2-20 μM, BAY 43-9006 1-7 μM; MUH fluorescence
Experimental: Cells were seeded as triplicates in 96 well plates at a density of 1,500 cells per well in 150 μl medium (1×10^4 cells per ml). The PI3K inhibitor wortmannin (Sigma, Steinheim, Germany) was directly added to the culture medium at concentrations ranging from 2-20 μM. BAY 43-9006 was added directly to the culture medium at concentrations ranging from 0.5-7 μM. Culture medium, cells treated with culture medium, and cells treated with culture medium with the addition of DMSO served as controls. Assay was started at timepoints indicated. Medium was discarded and each well was washed two times with PBS (without Ca2+ and Mg2+) and 100 μl of a solution containing 100 μg MUH (4-methylumbelliferyl-hepanoat)/ml PBS was added. Plates were incubated at 37° C. for one hour and measured in a Fluoroskan II (Labsystems, Helsinki), with an […]. The intensity of fluorescence indicates the number of vital cells in the wells (18,19).
To analyze the effects of inhibition of either the MAPK or AKT signaling pathways or both together on the proliferation of melanoma cells, we treated the metastatic melanoma cell line 451Lu in monolayer with the PI3K inhibitor wortmannin, BAY 43-9006, or both together. […]
The effect of inhibition of these signaling pathways on cell proliferation was determined by a fluorimetric assay using 4-methylumbelliferyl heptanoate (MUH) (18, 19).

[3] = system: Skmel28 metastatic melanoma cells; assay: Ki-67 proliferation marker staining of melanoma reconstructs (organotypic culture); assay type: cell-based, human; conditions: Skmel28 in dermal reconstructs; 4 μM wortmannin, 6 μM BAY 43-9006, alone or combined; 2-3 weeks
Experimental: as §4

[4] = system: Skmel28 metastatic melanoma cells; assay: Active caspase 3 staining (apoptosis) of melanoma reconstructs; assay type: cell-based, human; conditions: Skmel28 in dermal reconstructs; wortmannin, BAY 43-9006 or both
Experimental: as §4

[5] = system: Skmel28 metastatic melanoma cells; assay: Invasive melanoma growth in human dermal reconstructs (hematoxylin staining); assay type: cell-based; conditions: 4 μM wortmannin; for invasive melanoma growth (number and size of melanoma cell nests): 6 μM BAY 43-9006, alone or combined
Experimental: as §5
For blockade of the AKT and MAPK signaling pathways, the PI3K inhibitor wortmannin (Sigma, Steinheim, Germany) and BAY 43-9006 alone or in combination were added directly to the culture medium of the melanoma reconstructs or melanoma cells in monolayer culture at 4 μM and 6 μM, respectively. These concentrations have been described previously to be effective for melanoma cells 6 (16). The culture medium was changed every two days. Melanoma reconstructs treated with culture medium or culture medium with the addition of DMSO served as controls. All experiments were done as duplicates and were repeated twice.
Melanoma reconstructs were fixed with 4% formaldehyde for 8-9 h, dehydrated, and embedded in paraffin. Paraffin sections were stained with hematoxylin for routine light microscopy. […]
Finally, we determined whether the inhibition of the PI3K/AKT signaling pathway and the MAP kinase signaling pathway is able to affect invasive melanoma growth in a physiological context. […]

[6] = system: phospho-ERK (phospho-p44/42 MAP kinase, Thr202/Tyr204); assay: Immunohistochemistry for phosphorylated ERK in melanoma reconstructs; assay type: cell-based, human; conditions: Skmel28 reconstructs; 6 μM BAY 43-9006
Experimental: as §4

phospho-AKT (Ser473) = assay: Immunohistochemistry for phosphorylated AKT in melanoma reconstructs; assay type: cell-based, human; conditions: Skmel28 reconstructs; 4 μM wortmannin
Experimental: as §4

MelCAM [7] = assay: Flow cytometry of cell surface MelCAM, 451Lu monolayer; assay type: cell-based, human; conditions: 4 μM wortmannin, 6 μM BAY 43-9006, alone or combined, 96 hours
Experimental: as §1, §2, §3

SMILES | cell surface expression of avβ3 integrin (avβ3 integrin) | expression of MelCAM (MelCAM [1]) | expression of β3 integrin (β3 integrin) | effect on number of proliferating (vital) cells / proliferation rate [2] | cell proliferation (Ki-67 staining) [3] | active caspase 3 (ongoing apoptosis) [4] | invasive melanoma growth (number and size of melanoma cell nests) [5] | inhibition of phosphorylation of ERK (MAP-kinase pathway) [6] | expression of β3 integrin (β3 integrin; listed as Wortmannin) | inhibition of phosphorylation of AKT (phospho-AKT (Ser473)) | cell surface expression of MelCAM (MelCAM [7]) | cohesion of melanoma cells (melanoma-melanoma cell adhesion) [5] | morphology of melanoma cells [5]
CNC(=O)c1cc(Oc2ccc(NC(=O)Nc3ccc(Cl)c(C(F)(F)F)c3)cc2)ccn1 [BAY 43-9006, 4{4-[3-(4-chloro-3-trifluoromethylphenyl)-ureido]-phenoxy}-pyridine-2-carboxylic acid methyl amide] | down-regulates the expression of avβ3 integrin; also recorded: down-regulated | not affected; also recorded: did not appear to affect MelCAM expression | significantly reduced; also recorded: substantially reduced β3 integrin expression | significantly reduced; also recorded: significant decrease in cell proliferation | significant decrease in cell proliferation | active caspase 3 was found in the majority of Skmel28 metastatic melanoma cells | reduced invasive tumor growth; also recorded: reduced number and size of melanoma cell nests | effective in the inhibition of phosphorylation |  |  |  |  | 
COC[C@H]1OC(=O)c2coc3c2[C@@]1(C)C1=C(C3=O)[C@@H]2CCC(=O)[C@@]2(C)C[C@H]1OC(C)=O [wortmannin] |  | downregulated the expression of MelCAM | not altered | Little or no effect on the number of proliferating cells; also recorded: no significant effect on the number of proliferating cells | little or no effect on proliferation rate | active caspase 3 was found in the majority of Skmel28 metastatic melanoma cells | reduced invasive tumor growth; also recorded: number and size of melanoma cell nests were reduced |  | not affected | effective in the inhibition of phosphorylation | downregulates the expression of the adhesion molecules MelCAM; also recorded: down-regulates cell surface expression of MelCAM | decreased | multidendritic morphology; also recorded: multidendritic phenotype
